Common to all, as to experiment: MIC, broth double dilution
One assay deals with C. albicans 0065. The format is cell-based, Candida albicans. The following applies: 37°C, 16 h, absorbance at 600 nm, mean of three independent experiments. As to the method: (§1) The standard strain of C. albicans (ATCC 10231), three clinically isolated antibiotic-resistant strains (C. albicans 0065, C. albicans 0063, and C. albicans 6), E. coli (ATCC 8739), and S. aureus (ATCC 6538) were obtained from Kunming Medical University. T. rubrum was purchased from BeNa Culture Collection (BNCC, CAS no. 340195). Different strains of C. albicans, E. coli, and S. aureus were cultured with shaking at 37°C in YM medium and Luria-Bertani (LB) medium. T. rubrum was cultured at 28°C in potato dextrose agar (PDA) medium according to the manufacturer’s instructions.
(§2) According to CLSI protocols, the MIC is determined as a point where there is “zero detectable growth,” The MIC of blapstin against different fungal strains was determined by use of the double dilution method, namely, broth dilution determination. In brief, the different strains were grown in their corresponding media at 28°C or 37°C until they reached the exponential growth phase. Colistin E and fluconazole were used as positive controls. Blapstin was diluted to various concentrations in sterile saline: 100 μL of sterile saline was added to the second well of a sterile 96-well plate, and then 100 μL of blapstin was added to the first and second wells. The solution from the second well was double-diluted with sterile saline until the 11th well, from which 100 μL was removed. In the 12th well, no blapstin was added, and sterile saline was used as a negative control. Afterward, 100 μL of the diluted microbial solution was added to each well, followed by incubation at 37°C for 16 h. To assess the antifungal activity of blapstin against the T. rubrum strain, the spore germination rates were first determined microscopically with a hemocytometer. T. rubrum was diluted with normal saline to 1 × 10^5 CFU/mL and then incubated with various concentrations of blapstin at 28°C for 16 h. The absorbance at 600 nm was measured by a microplate reader (Epoch Etock; Biotek, USA) to estimate the inhibition of bacteria and fungi by blapstin.

For a further assay, the system named is C. albicans 6. It counts as cell-based, Candida albicans. The following applies: 37°C, 16 h, absorbance at 600 nm, mean of three independent experiments. Here is the method:
as §1, §2

The next assay has as its system C. albicans 0063. It counts as cell-based, Candida albicans. The note with it: 37°C, 16 h, absorbance at 600 nm, mean of three independent experiments. Here is the method: as §1, §2
Another assay concerns Trichophyton rubrum. The format is cell-based. The note with it: 1 × 10^5 CFU/mL, 28°C, 16 h, absorbance at 600 nm, mean of three independent experiments, ND = no bacteriostatic activity. As to the method: as §1, §2
The subject of assay [1] is Candida albicans ATCC 10231. The format is cell-based. The note with it: 96-well plate, 37°C, 16 h, absorbance at 600 nm, mean of three independent experiments. Here is the method:
as §1, §2

Assay [2] deals with Staphylococcus aureus ATCC 6538. The format is cell-based. The following applies: 96-well plate, 37°C, 16 h, absorbance at 600 nm, mean of three independent experiments, ND = no bacteriostatic activity. As to the method:
as §1, §2

Assay [3] has as its system Escherichia coli ATCC 8739. It counts as cell-based. The note with it: 96-well plate, 37°C, 16 h, absorbance at 600 nm, mean of three independent experiments, ND = no bacteriostatic activity. Here is the method: as §1, §2
[4] abbreviates: clinically isolated antibiotic-resistant strain.

In brackets after ≈: the same amount, converted by molar mass.

For the compound `OC(Cn1cncn1)(Cn1cncn1)c1ccc(F)cc1F` [Fluconazole], the MIC in the assay with C. albicans 0065 (Candida albicans, 0065, clinically isolated antibiotic-resistant strain) was 70 µM (≈ 21.4 µg/mL); against C. albicans 6 (Candida albicans, 6, clinically isolated antibiotic-resistant strain), 61 µM (≈ 18.7 µg/mL); with C. albicans 0063 (Candida albicans, 0063, clinically isolated antibiotic-resistant strain), 61 µM (≈ 18.7 µg/mL); against Trichophyton rubrum, 12.2 µM (≈ 3.74 µg/mL); in assay [1] (Candida albicans, ATCC10231, standard strain), 15 µM (≈ 4.59 µg/mL).
On to Colistin E, for which the MIC with C. albicans 0065 (setting [4]) turned out to be 5.4 µM; with C. albicans 6 (setting [4]) it was 1.1 µM; against C. albicans 0063 (setting [4]), 5.4 µM; in assay [2] it was 81.1 µM; in assay [3] it was 3 µM; in assay [1] (standard strain), 22 µM.

The values above are taken from article PMC10269622, “Blapstin, a Diapause-Specific Peptide-Like Peptide from the Chinese Medicinal Beetle Blaps rhynchopetera, Has Antifungal Function” (Microbiology Spectrum, 2023).
